{
  "source": "patent US20240424131A1",
  "about": "“TARGETING NANOPARTICLES FOR THERAPY” (University of Pittsburgh - Of the Commonwealth System of …, priority 2021, published 2024)",
  "test_system": "CT26 cells",
  "experiment": "Transwell co-culture transcytosis, HUVECs and CT26 cells",
  "format": "cell-based",
  "conditions": "NPs applied to HUVECs in upper chamber",
  "data": [
    {"smiles": "O=C(N/N=C/c1ccc(O)c(O)c1)c1cc2ccccc2cc1O", "note": "[dynasore]", "values": [
      {"measurement": "transfection of CT26 cells by Cy5.5-siRNA NPs in presence of endocytosis inhibitor", "value": "significantly inhibited"}
    ]}
  ]
}
